# Counter-ions that a name gives are not always drawn. Where no end group is shown, it is not given here. [ ]: non-standard residue; d: D form. Hyp = O=C(O)[C@@H]1C[C@@H](O)CN1; Orn = NCCC[C@H](N)C(=O)O; Imid = not defined here; Dap = NC[C@H](N)C(=O)O
# System: PAR-2
# Test: Inhibition of PAR-2 activating peptide (AP2) calcium signaling in cells pretreated with antagonist
# Assay type: cell-based, human
# Design: key to PAR-2 AP2 Signaling Treated/Control (T/C) / PAR-2 AP2 Signaling Treated/Control: AUC of calcium mobilization, treated ÷ control wells
# Conditions: AUC of calcium mobilization treated/control, initially screened at 1 mM compound; for PAR-2 AP2 Signaling Treated/Control (T/C): peptides; for PAR-2 AP2 Signaling Treated/Control: mimetic antagonists
# Protocol: In order to assess the potential of peptides and molecules selected above to block PAR-2 signaling, cells were pretreated with potential antagonist peptides for a predetermined amount of time and were subsequently treated with various GPCR agonists. Confluent Lewis lung carcinoma (LLC) cells were loaded for 30-60 minutes with the fluorescent dye Fluo-4. Final concentration 4 uM Fluo-4, 0.02% pluronic acid in physiological buffer. Cells were then washed with assay buffer, (HBSS containing 1 mM CaCl2, 1 mM MgSO4, and 2.5 mM probenecid). Cells were stimulated with various doses of PAR-2 activating peptide, PAR-1 activating peptide or ATP. Fluorescence was monitored using a Wallac 1470 fluorescent plate reader. (See Al-ani et. al Journal of Pharmacology and Experimental Therapeutics 290:2, 753-760). Additional compound screening was performed using U87-MG human glioma cells. In this assay cells were labeled with FLIPR Calcium 3 dye (Component A), which was dissolved in 10 mls of Assay Buffer without Probenecid. Loading buffer was prepared by diluting Component A with an additional 90 mls of Assay Buffer without Probenecid, giving a total volume of a 100 ml. For plate loading, 11 mls of FLIPR Calcium 3 dye (Component A) is placed into a 15 ml conical tube+110 μl of 250 mM Probenecid, at a final in-well working volume of 2.5 mM. Finally, 50 μl of Calcium 3 dye was added wells containing 100 μl media, and incubated 1 hr, 37° C., 5% CO2. Calcium signaling was then measured using a Flexstation II (Molecular Devices) following manufacturer's instructions.
# Potential antagonist compounds were initially screened at 1 mM compound concentration. Those compounds with activity were then subjected to additional confirmatory testing. Activity is reported as treated/controlled (T/C) where the area under the curve (AUC) of calcium mobilization plots in treated wells is divided by the AUC of calcium mobilization plots in control wells to generate a measure of inhibition.
Molecule,PAR-2 AP2 Signaling Treated/Control (T/C),PAR-2 AP2 Signaling Treated/Control
LIGY [ENMD-1051],0.83,–
CC(C)CNc1ccc(C(=O)NCCCCN)cn1 [ENMD-1541],–,0.65
"CC[C@@H](C)C(=O)N1CCN(C(=O)CCCCCN)CC1 [ENMD-1034, N^1-[R-2-methylbutanoyl]-N^4-[6′-aminohexanoyl]-piperazine]",–,0.39
"NCCCCCC(=O)NC1CN(C(=O)CC2CCCCC2)C1 [ENMD-1513, N-[1-(2-cyclohexylacetyl)azetidin-3-yl]-6-aminohexanamide]",–,0.97
"Cl.O=C(CC1CCCCC1)N1CCN(C(=O)C2CCNCC2)CC1 [ENMD-1770, N^1-2-cyclohexylethanoyl-N-4-piperidine-4-carbonyl-piperazine hydrochloride]",–,0.91
"O=C(Cc1cccnc1)N1CCN(C(=O)CC2CCCCC2)CC1 [ENMD-1074, 1-(4-(2-cyclohexylacetyl)piperazin-1-yl)-2-(pyridin-3-yl)-acetaldehyde]",–,0.35
LIGS [ENMD-1049],0.64,–
"CC(C)CNC(=O)[C@@H]1CC[C@@H](NC(=O)CCCCCN)C1 [ENMD-1504, N-isobutyl-3R-(6-aminohexanamido)-cyclopentane-1R-carboxamide]",–,0.71
"NCCCCCCNC(=O)c1cccn1CC1CCCCC1 [ENMD-1540, N-(6-aminohexyl)-1-(2-cyclohexylmethyl)-2-pyrrolecarboxamide]",–,0.05
L-HyP-K (Leu-[Hyp]-Lys) [ENMD-1060],1.29,–
"Br.CC(C)CC(=O)NCCNC(=O)CCCCCN [ENMD-1393, N-(2-(3-methylbutanamido)ethyl)-6-aminohexan-amide hydrobromide]",–,0.81
IGK-amide (Ile-Gly-Lys-NH2) [ENMD-1021],0.67,–
NCCCCCC(=O)N1CC2CN(C(=O)CC3CCCCC3)CC2C1 (centres unmarked) [ENMD-1776],–,0.82
IGR [ENMD-1023],0.23,–
LIGM [ENMD-1064],1.19,–
"NCCCCCC(=O)N1CCOC(C(=O)NCC2CCCCC2)C1 (centres unmarked) [ENMD-1523, 4-(6-Amino-hexanoyl)-morpholine-2-carboxylic acid cyclohexylmethyl-amide]",–,0.54
"CC(C)CCN1C(C(=O)NCCCCCCN)CCS1(=O)=O (centres unmarked) [ENMD-1539, N-(isoamyl)isothiasolidine-1,1-dioxide-3-carboxylic acid-6-aminohexylamide]",–,0.25
"NCCCCCCNC(=O)c1cc(NC(=O)CC2CCCCC2)[nH]n1 [ENMD-1551, 5-(2-cyclohexyl-acetylamino)-1H-pyrazole-3-carboxylic acid (6-amino-hexyl)-amide]",–,0.66
"Cl.N[C@H]1CC[C@@H](C(=O)N2CCN(C(=O)CC3CCCCC3)CC2)CC1 [ENMD-1781, N^1-2-cyclohexylethanoyl-N-4-cis-4-amino-cyclohexane-carbonyl piperazine hydrochloride]",–,0.71
"NCCCCCC(=O)Nc1cc(C(=O)NCC2CCCCC2)n[nH]1 [ENMD-1534, 5-(6-amino-hexanoylamino)-1H-pyrazole-3-carboxylic acid cyclohexylmethyl-amide]",–,0.44
L-Imid-GK (L[Imid]GK; reading uncertain; also: printed as L-Imid-GK) [ENMD-1063],0.94,–
"NCCC1CCN(c2cnc(C(=O)NCCC3CCCCC3)cn2)CC1 [ENMD-1778, cyclohexylethyl-6-(4-aminoethylpiperdine)-2-pyrazine amide]",–,0.05
"CC(C)CC(=O)N1CCN(C(=O)Cc2ccc(N)cc2)CC1 [ENMD-1065, N^1-3-methylbutyryl-N^4-[2-(4-aminophenyl)-ethanoyl]-piperazine]",–,0.34
"Cl.O=C(CC1CCCCC1)N1CCN(C(=O)C2CCCNC2)CC1 (centres unmarked) [ENMD-1773, N1-2-cyclohexylethanoyl-N-4-piperidine-3-carbonyl-piperazine hydrochloride]",–,0.85

Molecule,PAR-2 AP2 Signaling Treated/Control (T/C),PAR-2 AP2 Signaling Treated/Control
"CC(C)CC(=O)N1CCN(C(=O)Cc2cnc[nH]2)CC1 [ENMD-1066, 1-(4-(2-(1H-imidazol-4-yl)acetyl)piperazin 1-yl)-3-methylbutan-1-amide hydrochloride]",–,0.20
"NCCCCCC(=O)N1CCN(C(=O)Cc2ccccc2)CC1 [ENMD-1078, N^1-(2-phenylethanoyl)-N^4-(6-aminohexanoyl)piperazine]",–,0.42
"CC(C)CNC(=O)Cc1csc(NC(=O)CCCCCN)n1 [ENMD-1554, 6-amino-hexanoic acid [4-(isobutylcarbamoyl-methyl)-thiazol-2-yl]-amide]",–,0.44
"Cl.N[C@@H]1CCC[C@H](C(=O)N2CCN(C(=O)CC3CCCCC3)CC2)C1 [ENMD-1774, N^1-2-cyclohexylethanoyl-N-4-cis-3-amino-cyclohexane-carbonyl piperazine hydrochloride]",–,0.75
"COC(=O)CCCCC(=O)N1CCN(C(=O)CC(C)C)CC1 [ENMD-1402, Methyl 6-(4-(3-methylbutanoyl)piperazin-1-yl)-6-oxohexanoate]",–,0.64
"CC(C)CNc1nc2ccc(C(=O)NCCCCCCN)cc2[nH]1 [ENMD-1525, 2-Isobutylamino-3H-benzoimidazole-5-carboxylic acid (6-amino-hexyl)-amide]",–,0.52
"O=C(Cc1cn(CCCCN2C(=O)c3ccccc3C2=O)cn1)NC1CCCCC1 [ENMD-1535, N-cyclohexyl-2-(1-(4-(1,3-dioxoisoindolin-2-yl)butyl)-1H-imidazol-4-yl)acetamide]",–,0.46
"Nc1ccc(CC(=O)N2CCN(C(=O)Cc3ccccc3)CC2)cc1 [ENMD-1075, N^1-2-phenylethanoyl-N^4-[2-(4-aminophenyl)-ethanoyl]-piperazine]",–,0.71
IG-Orn (Ile-Gly-[Orn]) [ENMD-1029],0.42,–
"CC(C)CCn1c(=O)n(CCCCCCN)c2ccccc21 [ENMD-1517, 1-(6-aminohexyl)-3-[(3-methyl)butyl]benzimidazol(2)-one]",–,0.52
"CC(C)C(=O)N1CCN(C(=O)CCCCCN)CC1 [ENMD-1035, N′-[2′-methylpropanoyl]-N^4-[6′-aminohexanoyl]-piperazine]",–,0.32
"O=C(Cc1cnc[nH]1)N1CCN(C(=O)CC2CCCCC2)CC1 [ENMD-1071, 1-(4-(2-(1H-imidazol-4-yl)acetyl)piperazin-1-yl)-1-cyclohexyl-acetamide hydrochloride]",–,0.16
"O=C(Cc1ccccc1)N1CCN(C(=O)Cc2cnc[nH]2)CC1 [ENMD-1076, 1-(4-(2-(1H-imidazol-4-yl)acetyl)piperazin-1-yl)-1-benzyl-amide]",–,0.14
dI-dG-dK [ENMD-1383],0.48,–
"NCCCCCCN1C(C(=O)NCCC2CCCCC2)CCS1(=O)=O (centres unmarked) [ENMD-1545, N-(6-aminohexyl)isothiazolidine-1,1-dioxide-3-carboxylic acid (2-cyclohexyl)ethylamide]",–,0.35
"NCCCCCC(=O)NCCNC(=O)CC1CCCCC1 [ENMD-1417, N-(2-(2-cyclohexylacetamido)ethyl)-6-aminohexan-amide]",–,0.38
"N=C(N)NCCCCCC(=O)N1CCN(C(=O)CC2CCCCC2)CC1 [ENMD-1072, 4-(1-cyclohexylacetyl)piperazin-1-(5′-carbamoyl-pentylguanidine)]",–,0.56
"IG-Dap (Ile-Gly-[Dap]) [ENMD-1025, Dap=diamino proprionic acid]",0.31,–
"NCCCOc1ccc(C(=O)NCC2CCCCC2)cc1 [ENMD-1411, 4-(3-aminopropoxy)-N-(cyclohexylmethyl)-benzamide]",–,0.43
"CC(C)CNC(=O)c1cccn1CCCCCCN [ENMD-1569, 1-(6-aminohexyl)-2-[N′-isobutyl]-pyrrole carboxamide]",–,0.77
"Nc1ccc(CC(=O)N2CCN(C(=O)CC3CCCCC3)CC2)cc1 [ENMD-1070, N^1-2-cyclohexylethanoyl-N^4-[2-(4-aminophenyl)-ethanoyl]-piperazine]",–,0.05
"CC(C)CC(=O)N1CC(NC(=O)CCCCCN)C1 [ENMD-1515, N-[1-(3-methylbutanoyl)azetidin-3-yl]-6-aminohexanamide]",–,0.65
"O=C(NCCC1CCNCC1)c1cnc(NCC2CCCCC2)cn1 [ENMD-1572, 4-(piperidinethyl)-6-cyclohexanemethylamino-2-pyrazine amide]",–,0.10

# From patent US20060063930A1, “Compositions and methods comprising proteinase activated receptor antagonists” (priority 2004, published 2006)
